Where two headings read alike, the source gives them in different places.
Tests used:
BTK = BTK (Homo sapiens (Human), UniProt Q06187); assay: Washout experiment with Ramos cells; type: cell-based; details: 100 nM compound 1 hour, then washout
In short: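 Serum-starved Ramos cells (1 h, 37° C) exposed to 100 nM compound for 1 hour, then washed into compound-free media every 2 hours. At set timepoints cells were stimulated with 1 ug anti-human IgM for 10 minutes on ice. BTK activity was read as PLCγ2 phosphorylation by phospho-specific western blot.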

TEC kinase = TEC kinase (Homo sapiens (Human), UniProt P42680); assay: Mass spectrometry for TEC kinase (tryptic digest); type: binding; details: 3 hrs at 10x excess
TEC kinase, sequence (P42680 whole entry): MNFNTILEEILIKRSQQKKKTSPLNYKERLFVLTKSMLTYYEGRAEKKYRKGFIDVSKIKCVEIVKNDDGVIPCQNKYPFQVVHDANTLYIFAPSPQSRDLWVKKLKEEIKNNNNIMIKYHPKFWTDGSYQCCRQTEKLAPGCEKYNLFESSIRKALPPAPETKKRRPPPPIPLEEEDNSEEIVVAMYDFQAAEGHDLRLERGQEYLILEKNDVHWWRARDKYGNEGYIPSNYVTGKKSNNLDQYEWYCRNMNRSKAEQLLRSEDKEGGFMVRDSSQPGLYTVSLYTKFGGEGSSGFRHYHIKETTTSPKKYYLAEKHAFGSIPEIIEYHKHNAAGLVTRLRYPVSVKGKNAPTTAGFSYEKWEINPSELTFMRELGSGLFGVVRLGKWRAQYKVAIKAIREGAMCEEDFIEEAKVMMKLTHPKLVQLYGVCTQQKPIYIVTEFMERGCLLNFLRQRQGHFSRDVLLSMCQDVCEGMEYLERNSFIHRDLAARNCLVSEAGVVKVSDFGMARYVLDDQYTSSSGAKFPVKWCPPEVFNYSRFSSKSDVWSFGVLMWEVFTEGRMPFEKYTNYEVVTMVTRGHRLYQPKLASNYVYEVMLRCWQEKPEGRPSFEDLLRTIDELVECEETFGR
Description: (§1) TEC kinase (45 pmols; Invitrogen) was incubated with (I-2) (450 pmols) for 3 hrs at 10× excess prior to tryptic digestion. Iodoacetamide was used as the alkylating agent after compound incubation. […] For tryptic digests a 5 ul aliquot (7.5 pmols) was diluted with 15 ul of 0.1% TFA prior to micro C18 Zip Tipping directly onto the MALDI target using alpha cyano-4-hydroxy cinnamic acid as the matrix (5 mg/ml in 0.1% TFA:Acetonitrile 50:50).
As depicted in FIG. 6, the expected peptide ([…]) to be modified was immediately evident after reaction with I-2 (MI mass of 359.17 Da) at MH+ of 1294.72. The peptide was also quite evident in the control sample as modified by Iodacetamide at MH+ of 992.56. […] There was no evidence of other modified peptides.
For tryptic digests the instrument was set in Reflectron mode with a pulsed extraction setting of 2200. Calibration was done using the Laser Biolabs Pep Mix standard ([…], 1296.69, 1672.92, 2093.09, 2465.20). For CID/PSD analysis the peptide was selected using cursors to set ion gate timing and fragmentation occurred at a laser power about 20% higher and He was used as the collision gas for CID. Calibration for fragments was done using the P14R fragmentation calibration for the Curved field Reflectron.
as §1, with “(I-4)” for “(I-2)”
As depicted in FIG. 7, the expected peptide ([…]) to be modified was immediately evident at MH+ of 1355.72. This is the mass to be expected when compound I-4, with an adduct mass of 420.21, is added to the peptide mass of 935.51. The peptide was also quite evident in the control sample as modified by Iodacetamide at MH^+ of 992.56. […] There was no evidence of other modified peptides. […]

[1] = tested on: B cell lymphoma cell lines; assay: B cell lymphoma proliferation assay; type: cell-based
JAK3 = JAK3 (Homo sapiens (Human), UniProt P52333); assay: Omnia assay for potency assessment against the active form of JAK3; type: biochemical; details: read-out: JAK3 Inhibition
JAK3, sequence (P52333 whole entry): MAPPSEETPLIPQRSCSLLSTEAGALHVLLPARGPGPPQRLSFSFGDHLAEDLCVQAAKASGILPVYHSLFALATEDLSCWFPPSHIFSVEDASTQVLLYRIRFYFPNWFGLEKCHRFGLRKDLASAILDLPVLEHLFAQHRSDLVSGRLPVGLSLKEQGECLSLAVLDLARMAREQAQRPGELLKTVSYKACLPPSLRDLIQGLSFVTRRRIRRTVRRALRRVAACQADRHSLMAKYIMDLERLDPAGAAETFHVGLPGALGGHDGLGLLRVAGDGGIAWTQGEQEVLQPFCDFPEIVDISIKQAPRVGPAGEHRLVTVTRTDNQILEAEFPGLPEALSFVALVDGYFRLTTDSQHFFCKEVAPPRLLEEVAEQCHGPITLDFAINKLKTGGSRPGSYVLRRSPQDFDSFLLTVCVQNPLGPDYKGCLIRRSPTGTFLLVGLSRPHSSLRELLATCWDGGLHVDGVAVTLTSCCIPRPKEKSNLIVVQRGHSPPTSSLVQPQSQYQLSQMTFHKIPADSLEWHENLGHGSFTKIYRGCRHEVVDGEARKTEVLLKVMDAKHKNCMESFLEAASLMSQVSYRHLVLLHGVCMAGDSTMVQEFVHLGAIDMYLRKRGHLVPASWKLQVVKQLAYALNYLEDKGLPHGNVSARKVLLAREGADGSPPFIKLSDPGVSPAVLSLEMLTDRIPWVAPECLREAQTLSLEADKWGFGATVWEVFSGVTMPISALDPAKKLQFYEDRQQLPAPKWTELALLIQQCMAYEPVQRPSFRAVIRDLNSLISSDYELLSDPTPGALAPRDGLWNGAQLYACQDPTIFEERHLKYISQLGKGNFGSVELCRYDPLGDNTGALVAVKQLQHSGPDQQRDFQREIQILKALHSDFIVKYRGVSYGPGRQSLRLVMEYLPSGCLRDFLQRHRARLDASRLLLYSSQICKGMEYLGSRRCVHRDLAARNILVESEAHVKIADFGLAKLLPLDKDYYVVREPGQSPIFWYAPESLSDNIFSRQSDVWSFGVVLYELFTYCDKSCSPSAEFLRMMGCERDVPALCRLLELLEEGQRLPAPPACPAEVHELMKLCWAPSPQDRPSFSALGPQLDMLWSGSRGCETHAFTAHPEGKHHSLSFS

[2] = DHL4 B cell lymphoma cell line, read-out: EC50 (μM) DHL4
[3] = Homo sapiens, DOHH-2, DOHH2 B cell lymphoma cell line, read-out: EC50 (μM) DOHH2
[4] = Homo sapiens, WSUDLCL2, WSU-DLCL2 B cell lymphoma cell line, read-out: EC50 (μM) WSU-DLCL2

BTK, sequence (Q06187 whole entry): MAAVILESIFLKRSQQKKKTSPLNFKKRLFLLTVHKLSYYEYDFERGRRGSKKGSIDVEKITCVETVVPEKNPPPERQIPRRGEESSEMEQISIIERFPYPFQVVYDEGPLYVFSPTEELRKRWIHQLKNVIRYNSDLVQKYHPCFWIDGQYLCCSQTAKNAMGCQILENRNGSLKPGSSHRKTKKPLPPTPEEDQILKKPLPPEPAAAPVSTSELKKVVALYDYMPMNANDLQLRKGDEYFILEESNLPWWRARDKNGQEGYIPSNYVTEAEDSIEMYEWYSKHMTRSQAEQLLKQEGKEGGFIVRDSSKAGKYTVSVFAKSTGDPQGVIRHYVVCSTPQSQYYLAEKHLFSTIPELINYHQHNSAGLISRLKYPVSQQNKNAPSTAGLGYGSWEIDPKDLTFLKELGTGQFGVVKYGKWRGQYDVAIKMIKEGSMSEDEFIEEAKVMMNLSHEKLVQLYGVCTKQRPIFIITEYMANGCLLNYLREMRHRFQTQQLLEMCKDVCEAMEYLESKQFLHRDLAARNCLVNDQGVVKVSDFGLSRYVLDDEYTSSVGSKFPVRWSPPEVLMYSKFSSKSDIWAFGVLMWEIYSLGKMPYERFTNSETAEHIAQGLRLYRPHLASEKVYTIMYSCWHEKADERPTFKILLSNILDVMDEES

Row | SMILES | BTK Inhibition Type (BTK) | covalent modification of TEC kinase peptide GCLLNFLR (Cys449) by mass spectrometry (TEC kinase) | EC50 [1, 2] [µM] | EC50 [1, 3] [µM] | EC50 [1, 4] [µM] | IC50 (JAK3) [nM]
1 | Cc1cccc(Nc2nc(Nc3cccc(NC(=O)/C=C/CN(C)C)c3)ncc2F)c1 [Compound I-4, (E)-4-(dimethylamino)-N-(3-(5-fluoro-4-(m-tolylamino)pyrimidin-2-ylamino)phenyl)but-2-enamide] | irreversible | reaction was complete | 0.1 to 1 | 0.1 to 1 | 0.1 to 1 | < 10
2 | C=CC(=O)Nc1cccc(Nc2nc(Nc3ccccc3)ncc2C)c1 [Compound I-7, N-(3-(5-methyl-2-(phenylamino)pyrimidin-4-ylamino)phenyl)acrylamide] | irreversible | reaction was complete | 1 to 10 | 1 to 10 | 1 to 10 | < 10

Reference: patent US10596172B2 (Celgene CAR LLC, priority 2008, dated 2020)
